In BindingDB's records for doi:10.1016/0922-4106(94)90227-5 (Novo Nordisk, 1994):

Tests used:
[1] = molecular target: Metabotropic glutamate receptor 1 (Rattus norvegicus, UniProt P23385)
[2] = molecular target: Metabotropic glutamate receptor 2 (Homo sapiens, UniProt Q14416)
Glutamate receptor 3 = Glutamate receptor 3 (Rattus norvegicus, UniProt P19492)
[3] = molecular target: Glutamate receptor ionotropic, kainate 1 (Rattus norvegicus, UniProt P22756)
[4] = molecular target: Metabotropic glutamate receptor 4 (Rattus norvegicus, UniProt P31423)
[5] = molecular target: Glutamate receptor ionotropic, NMDA 1 (Rattus norvegicus, UniProt P35439)

Measured: Ki

Sequence of Glutamate receptor ionotropic, kainate 1 (P22756 whole entry): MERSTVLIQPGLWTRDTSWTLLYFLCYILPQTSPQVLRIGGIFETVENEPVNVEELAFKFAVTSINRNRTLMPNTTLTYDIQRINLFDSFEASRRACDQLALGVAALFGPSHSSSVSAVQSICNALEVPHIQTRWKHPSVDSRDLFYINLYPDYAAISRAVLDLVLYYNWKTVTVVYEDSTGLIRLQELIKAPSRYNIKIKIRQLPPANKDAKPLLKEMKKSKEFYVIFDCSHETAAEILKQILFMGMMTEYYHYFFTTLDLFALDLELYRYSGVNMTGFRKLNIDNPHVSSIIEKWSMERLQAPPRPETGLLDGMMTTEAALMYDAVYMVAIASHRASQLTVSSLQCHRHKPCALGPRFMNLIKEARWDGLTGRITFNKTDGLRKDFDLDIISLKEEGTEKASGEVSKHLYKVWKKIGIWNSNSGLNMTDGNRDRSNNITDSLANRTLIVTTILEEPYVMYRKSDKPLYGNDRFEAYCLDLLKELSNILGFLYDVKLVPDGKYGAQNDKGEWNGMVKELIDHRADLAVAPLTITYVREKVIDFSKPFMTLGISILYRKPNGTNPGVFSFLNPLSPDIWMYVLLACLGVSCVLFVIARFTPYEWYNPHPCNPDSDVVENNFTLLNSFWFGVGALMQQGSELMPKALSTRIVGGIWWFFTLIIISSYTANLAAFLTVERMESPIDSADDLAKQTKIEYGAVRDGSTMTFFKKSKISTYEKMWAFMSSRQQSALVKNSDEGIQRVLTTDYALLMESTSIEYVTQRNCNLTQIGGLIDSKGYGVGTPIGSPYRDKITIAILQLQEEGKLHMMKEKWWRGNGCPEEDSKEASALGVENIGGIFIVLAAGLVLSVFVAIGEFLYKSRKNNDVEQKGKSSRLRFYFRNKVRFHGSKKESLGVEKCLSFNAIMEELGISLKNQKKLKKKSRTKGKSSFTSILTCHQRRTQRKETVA
Sequence of Metabotropic glutamate receptor 2 (Q14416 whole entry): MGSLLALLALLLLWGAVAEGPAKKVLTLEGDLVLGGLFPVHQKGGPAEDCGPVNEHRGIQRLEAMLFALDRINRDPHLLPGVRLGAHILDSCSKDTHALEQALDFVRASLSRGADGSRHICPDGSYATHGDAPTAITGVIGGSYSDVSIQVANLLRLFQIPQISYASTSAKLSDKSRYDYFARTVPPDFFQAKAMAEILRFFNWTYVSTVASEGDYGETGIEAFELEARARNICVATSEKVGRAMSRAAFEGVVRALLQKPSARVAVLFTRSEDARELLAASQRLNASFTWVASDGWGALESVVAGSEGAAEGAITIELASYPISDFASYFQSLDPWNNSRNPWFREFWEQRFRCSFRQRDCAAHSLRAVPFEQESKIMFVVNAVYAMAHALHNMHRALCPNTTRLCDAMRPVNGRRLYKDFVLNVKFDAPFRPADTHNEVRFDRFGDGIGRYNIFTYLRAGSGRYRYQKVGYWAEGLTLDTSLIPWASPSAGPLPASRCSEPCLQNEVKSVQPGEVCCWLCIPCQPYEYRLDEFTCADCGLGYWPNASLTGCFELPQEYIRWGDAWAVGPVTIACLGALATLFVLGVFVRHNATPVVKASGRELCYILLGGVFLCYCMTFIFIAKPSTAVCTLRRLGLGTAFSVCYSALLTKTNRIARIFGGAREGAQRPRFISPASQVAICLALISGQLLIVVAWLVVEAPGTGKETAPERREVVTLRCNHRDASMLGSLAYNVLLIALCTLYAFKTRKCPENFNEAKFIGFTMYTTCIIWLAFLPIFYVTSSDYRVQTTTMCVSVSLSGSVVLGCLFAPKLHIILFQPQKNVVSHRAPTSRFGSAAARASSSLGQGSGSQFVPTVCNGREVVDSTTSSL
Sequence of Metabotropic glutamate receptor 1 (P23385 whole entry): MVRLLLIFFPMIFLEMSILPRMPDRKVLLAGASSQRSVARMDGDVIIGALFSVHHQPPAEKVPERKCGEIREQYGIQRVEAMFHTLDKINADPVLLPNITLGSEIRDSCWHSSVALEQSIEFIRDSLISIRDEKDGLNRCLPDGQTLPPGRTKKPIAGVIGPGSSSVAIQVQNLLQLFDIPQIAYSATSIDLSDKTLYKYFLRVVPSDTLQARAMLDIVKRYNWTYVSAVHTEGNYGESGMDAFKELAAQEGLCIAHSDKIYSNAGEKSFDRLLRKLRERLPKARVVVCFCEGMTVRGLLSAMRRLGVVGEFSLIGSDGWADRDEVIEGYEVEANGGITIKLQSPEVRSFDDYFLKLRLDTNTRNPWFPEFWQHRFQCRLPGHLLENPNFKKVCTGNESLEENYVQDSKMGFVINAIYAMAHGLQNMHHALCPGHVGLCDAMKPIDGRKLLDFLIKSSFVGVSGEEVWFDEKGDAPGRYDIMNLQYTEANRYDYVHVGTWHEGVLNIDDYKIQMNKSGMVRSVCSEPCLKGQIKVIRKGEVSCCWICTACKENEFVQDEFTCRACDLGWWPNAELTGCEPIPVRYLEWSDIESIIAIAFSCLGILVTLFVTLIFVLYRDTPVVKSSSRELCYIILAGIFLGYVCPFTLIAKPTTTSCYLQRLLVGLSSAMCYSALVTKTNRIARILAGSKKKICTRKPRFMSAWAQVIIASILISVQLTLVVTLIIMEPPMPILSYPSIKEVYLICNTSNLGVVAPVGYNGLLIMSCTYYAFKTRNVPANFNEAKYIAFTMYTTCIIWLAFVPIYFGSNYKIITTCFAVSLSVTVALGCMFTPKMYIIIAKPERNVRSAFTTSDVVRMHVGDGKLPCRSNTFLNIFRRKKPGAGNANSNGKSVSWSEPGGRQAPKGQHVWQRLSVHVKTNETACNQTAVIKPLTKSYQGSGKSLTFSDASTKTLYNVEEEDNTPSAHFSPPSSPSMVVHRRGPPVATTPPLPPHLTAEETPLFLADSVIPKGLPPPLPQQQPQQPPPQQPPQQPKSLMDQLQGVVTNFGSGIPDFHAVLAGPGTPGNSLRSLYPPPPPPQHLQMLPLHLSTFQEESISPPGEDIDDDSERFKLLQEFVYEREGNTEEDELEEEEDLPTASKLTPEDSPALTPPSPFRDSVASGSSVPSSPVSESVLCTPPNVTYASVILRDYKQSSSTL
Sequence of Glutamate receptor 3 (P19492 whole entry): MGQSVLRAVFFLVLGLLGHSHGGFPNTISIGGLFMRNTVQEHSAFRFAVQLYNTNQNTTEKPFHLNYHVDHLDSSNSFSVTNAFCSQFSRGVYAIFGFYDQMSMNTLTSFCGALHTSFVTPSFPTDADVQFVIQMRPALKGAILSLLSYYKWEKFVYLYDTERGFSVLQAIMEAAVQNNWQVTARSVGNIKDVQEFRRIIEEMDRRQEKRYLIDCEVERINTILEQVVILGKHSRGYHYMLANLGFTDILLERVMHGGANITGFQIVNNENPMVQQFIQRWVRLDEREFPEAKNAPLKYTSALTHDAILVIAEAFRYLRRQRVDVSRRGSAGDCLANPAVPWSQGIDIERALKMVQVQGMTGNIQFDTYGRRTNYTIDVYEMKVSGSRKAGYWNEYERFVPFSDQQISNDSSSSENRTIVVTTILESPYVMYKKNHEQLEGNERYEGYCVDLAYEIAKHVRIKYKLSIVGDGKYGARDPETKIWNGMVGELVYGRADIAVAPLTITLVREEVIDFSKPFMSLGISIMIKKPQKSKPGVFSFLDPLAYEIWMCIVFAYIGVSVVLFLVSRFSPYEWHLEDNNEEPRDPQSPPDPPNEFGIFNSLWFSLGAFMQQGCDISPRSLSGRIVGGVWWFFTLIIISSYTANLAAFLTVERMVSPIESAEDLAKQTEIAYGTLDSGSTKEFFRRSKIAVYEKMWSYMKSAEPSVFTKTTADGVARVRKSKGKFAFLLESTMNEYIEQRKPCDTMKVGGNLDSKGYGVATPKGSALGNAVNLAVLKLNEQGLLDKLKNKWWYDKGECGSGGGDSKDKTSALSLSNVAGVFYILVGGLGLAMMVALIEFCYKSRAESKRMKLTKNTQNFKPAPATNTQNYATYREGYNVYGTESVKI
Sequence of Metabotropic glutamate receptor 4 (P31423 whole entry): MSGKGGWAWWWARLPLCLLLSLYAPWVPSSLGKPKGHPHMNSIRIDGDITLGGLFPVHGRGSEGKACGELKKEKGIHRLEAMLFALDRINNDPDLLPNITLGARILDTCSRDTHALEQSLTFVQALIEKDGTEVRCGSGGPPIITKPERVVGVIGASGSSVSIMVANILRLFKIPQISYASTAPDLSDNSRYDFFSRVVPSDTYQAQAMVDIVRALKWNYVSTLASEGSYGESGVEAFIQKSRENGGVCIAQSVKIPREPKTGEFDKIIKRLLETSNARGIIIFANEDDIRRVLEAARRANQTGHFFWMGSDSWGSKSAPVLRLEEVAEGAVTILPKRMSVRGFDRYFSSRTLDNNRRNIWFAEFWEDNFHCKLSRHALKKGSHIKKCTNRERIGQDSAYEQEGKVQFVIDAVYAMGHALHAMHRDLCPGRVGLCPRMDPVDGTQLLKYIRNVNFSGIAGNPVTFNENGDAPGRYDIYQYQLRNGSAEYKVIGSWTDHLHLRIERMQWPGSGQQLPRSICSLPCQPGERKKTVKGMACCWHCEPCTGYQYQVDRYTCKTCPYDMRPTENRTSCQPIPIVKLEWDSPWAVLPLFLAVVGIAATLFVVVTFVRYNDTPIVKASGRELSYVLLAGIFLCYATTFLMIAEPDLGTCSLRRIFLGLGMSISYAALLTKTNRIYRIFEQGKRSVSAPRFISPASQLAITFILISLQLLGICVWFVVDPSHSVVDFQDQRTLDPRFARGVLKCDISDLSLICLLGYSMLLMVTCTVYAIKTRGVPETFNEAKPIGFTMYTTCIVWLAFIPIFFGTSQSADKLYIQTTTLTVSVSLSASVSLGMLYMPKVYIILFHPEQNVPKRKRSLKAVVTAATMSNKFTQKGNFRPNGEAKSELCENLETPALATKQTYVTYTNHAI

C[C@@](N)(C(=O)O)c1ccc(C(=O)O)cc1 (racemic)
> 10 µM: all assays above

N[C@H](C(=O)O)c1ccc(O)c(C(=O)O)c1 [3C4HPG]
> 10 µM: all assays above

N[C@H](C(=O)O)c1ccc(C(=O)O)cc1 [4-((S)-Amino-carboxy-methyl)-benzoic acid]
> 10 µM: all assays above

NC(C(=O)O)c1ccc(C(=O)O)cc1 (centres undefined) [4-(Amino-carboxy-methyl)-benzoic acid]
> 10 µM: [1] | [2] | [4]

N[C@@H](C(=O)O)c1cccc(O)c1 [(R)-3-Hydroxyphenylglyci]
> 10 µM: all assays above

N[C@H](C(=O)O)c1cccc(O)c1 [(S)-3-Hydroxyphenylglycine]
> 10 µM: all assays above

N[C@@H](C(=O)O)c1ccc(C(=O)O)cc1 [(S)-4CPG]
> 10 µM: all assays above

N[C@@H](C(=O)O)c1ccc(O)c(C(=O)O)c1 [CB7394016]
not listed: Glutamate receptor 3
> 10 µM: all other assays above
